Columns and labels:
Format in all cases: cell-based
TYK2 [1] = target: T1, TYK2 (Homo sapiens, UniProt P29597); experiment: TYK2 degradation MSD assay in EBV-B cells; parameters: endogenous in cells; host or cells: EBV-B cells; conditions: 4 to 24 hours incubation, read-out: TYK2 MSD DC50 rating in EBV-B
Description: (§1) Example 3. TYK2 Degradation MSD Assay in EBV-B, OCI-LY10, and Human PBMC Cells
(§2) Degradation of TYK2 in cells was quantitatively measured using Meso Scale Discovery (MSD) technology. EBV-B, OCI-LY10 or human PBMC cells were seeded in 96-well plates with a density of 0.4 million cells per well in 100 μl fresh media. Compounds were then added to the assay plates with a final top concentration of 1 to 10 μM in a 1:3 dilution series with total of 9 doses. The assay plates were then incubated for 4 to 24 hours at 37° C. under 5% CO2. The assay plates were then centrifuged for 5 minutes, and the cell pellets were treated with 100 μl/well RIPA lysis buffer (Boston Bioproducts, BP-115D) with protease and phosphatase inhibitors (Roche, 05892791001 and 04906837001). To prepare MSD assay plates (MSD, L15XA), the plates were coated with the capture antibody (Santa Cruz Biotechnology, SC-5271) in PBS, at 40 μl/well. The plates were then incubated overnight at 4° C., washed 3 times with 150 μl/well TBST buffer (Cell Signaling Technology, 9997S) and blocked with 150 μl/well blocking buffer (MSD, R93BA-4). Cell lysates were then added to MSD assay plates and the plates were incubated at room temperature for 1 hour. The plates were then washed 3 times with 150 μl/well TBST buffer and 25 μl/well primary detection antibody (Cell Signaling Technology, #9312). The assay plates were then incubated at room temperature for 1 hour, washed 3 times with 150 μl/well TBST buffer, and 25 μl/well secondary detection antibody, SULFO-TAG anti-rabbit antibody (MSD, R32AB-1) were added. The assay plates were then incubated at room temperature for 1 hour, washed 3 times with 150 μl/well TBST buffer, and 150 μl/well MSD reading buffer (MSD, R92TC-2) were added. The plates were then analyzed by an MSD reader. The data was analyzed by GraphPad Prism and the dose dependent TYK2 degradation was fit using the four-parameter inhibitor vs. response nonlinear regression. The DC50 data were measured and categorized into different levels in Table H. The compound with DC50 less than or equal to 1 nM is marked as A, with DC50 more than 1 nM and less than or equal to 10 nM is marked as B, with DC50 more than 10 nM and less than or equal to 100 nM is marked as C, and with DC50 more than 100 nM or not available is marked as D.

TYK2 [2] = target: T1, TYK2; experiment: TYK2 degradation MSD assay in human PBMC cells; parameters: endogenous in cells; host or cells: human PBMC; conditions: 4 to 24 hours incubation, read-out: TYK2 MSD DC50 rating in human PBMC
Description: as §1, §2

TYK2 [3] = target: T1, TYK2; experiment: TYK2 degradation MSD assay in OCI-LY10 cells; parameters: endogenous in cells; host or cells: EBV-B cells; conditions: 4 to 24 hours incubation, read-out: TYK2 MSD DC50 rating in OCI-LY10
Description: as §1, §2

T1 sequence (P29597 whole entry): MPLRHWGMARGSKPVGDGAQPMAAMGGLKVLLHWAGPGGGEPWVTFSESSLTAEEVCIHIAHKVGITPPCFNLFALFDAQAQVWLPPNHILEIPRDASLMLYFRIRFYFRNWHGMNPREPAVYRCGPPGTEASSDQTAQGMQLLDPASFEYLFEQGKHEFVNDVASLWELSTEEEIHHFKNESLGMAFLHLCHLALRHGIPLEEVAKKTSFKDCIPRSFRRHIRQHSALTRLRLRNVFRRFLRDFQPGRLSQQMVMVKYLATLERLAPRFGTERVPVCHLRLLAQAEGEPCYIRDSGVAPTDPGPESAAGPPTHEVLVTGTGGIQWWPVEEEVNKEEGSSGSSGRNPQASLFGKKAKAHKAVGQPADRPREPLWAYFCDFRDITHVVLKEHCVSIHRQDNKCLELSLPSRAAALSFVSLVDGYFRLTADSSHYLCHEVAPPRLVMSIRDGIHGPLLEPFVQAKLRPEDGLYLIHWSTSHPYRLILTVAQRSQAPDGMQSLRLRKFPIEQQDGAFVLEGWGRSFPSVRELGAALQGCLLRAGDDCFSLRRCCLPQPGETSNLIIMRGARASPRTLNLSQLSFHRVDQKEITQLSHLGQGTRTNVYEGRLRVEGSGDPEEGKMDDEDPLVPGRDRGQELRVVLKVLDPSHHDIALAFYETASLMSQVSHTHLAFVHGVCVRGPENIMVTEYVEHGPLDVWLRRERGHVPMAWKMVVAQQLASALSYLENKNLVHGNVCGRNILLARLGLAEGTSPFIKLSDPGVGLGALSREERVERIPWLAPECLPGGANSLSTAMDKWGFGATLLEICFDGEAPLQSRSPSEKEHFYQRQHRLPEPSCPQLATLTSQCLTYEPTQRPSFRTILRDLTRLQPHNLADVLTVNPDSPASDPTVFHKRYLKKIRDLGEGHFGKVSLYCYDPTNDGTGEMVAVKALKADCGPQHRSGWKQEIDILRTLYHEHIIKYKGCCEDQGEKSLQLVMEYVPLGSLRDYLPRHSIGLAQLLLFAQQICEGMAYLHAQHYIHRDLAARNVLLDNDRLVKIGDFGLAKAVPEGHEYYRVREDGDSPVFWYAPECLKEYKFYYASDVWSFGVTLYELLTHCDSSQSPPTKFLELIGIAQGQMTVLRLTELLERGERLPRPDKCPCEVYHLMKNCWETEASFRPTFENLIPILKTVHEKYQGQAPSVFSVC

SMILES	DC50 (TYK2 [1]) [nM]	DC50 (TYK2 [2]) [nM]	DC50 (TYK2 [3]) [nM]
CNc1cc(Nc2cccn(-c3cc(C(=O)NCCCCCCCCCCc4ccc5c(c4)n(C)c(=O)n5C4CCC(=O)NC4=O)ccn3)c2=O)nn2c(C(=O)N[C@@H]3C[C@@H]3F)cnc12 (some centres unmarked) [Example K233]	1 to 10	1 to 10	> 100
CNc1cc(Nc2cccn(-c3ccc(C(=O)N4CC5(CCN(c6ccc(-c7ccc8c(c7)n(C)c(=O)n8C7CCC(=O)NC7=O)cn6)CC5)C4)cn3)c2=O)nn2c(C(=O)N[C@@H]3C[C@@H]3F)cnc12 (some centres unmarked) [Example K383]	< 1	< 1	> 100
CNc1cc(Nc2cccc(-c3ccc(CN4CCN(c5ccc(-c6ccc7c(c6)n(C)c(=O)n7C6CCC(=O)NC6=O)cc5)CC4)cn3)c2F)nn2c(C(=O)N[C@@H]3C[C@@H]3F)cnc12 (some centres unmarked) [Example K563]	> 100	> 100	< 1
CNC(=O)c1cnc(Nc2ccc(CN3CC(c4cccc5c4n(C)c(=O)n5C4CCC(=O)NC4=O)C3)cn2)cc1Nc1cccc(-c2ncc(F)cn2)c1OC (centres unmarked) [Example K198]	> 100	< 1	> 100
CNc1cc(N2CCc3c(-c4ccc(CN5CCC6(CC5)CCN(c5ccc(-c7ccc8c(c7)n(C)c(=O)n8C7CCC(=O)NC7=O)cc5)CC6)cn4)cccc32)nn2c(C(=O)N[C@@H]3C[C@@H]3F)cnc12 (some centres unmarked) [Example K609]	> 100	> 100	1 to 10
CNc1cc(N2CCc3c(N4CCC(CN5CCN(c6ccc7c(c6)n(C)c(=O)n7C6CCC(=O)NC6=O)CC5)CC4)cccc32)nn2c(C(=O)N[C@@H]3C[C@@H]3F)cnc12 (some centres unmarked) [Example K638]	> 100	> 100	< 1
COc1c(Nc2cc(C(F)F)c3ncc(C(=O)N[C@@H]4C[C@@H]4F)n3n2)cccc1-c1ccc(CN2CCN(c3ccc(-c4ccc5c(c4)n(C)c(=O)n5C4CCC(=O)NC4=O)cc3)CC2)cn1 (mixture of isomers) [Example K539]	> 100	> 100	> 100
CNc1cc(Nc2cccc(CN3CCN(Cc4ccc5c(c4)n(C)c(=O)n5C4CCC(=O)NC4=O)CC3)c2)nn2c(C(=O)NC3CC3)cnc12 (centres unmarked) [Example K602]	> 100	> 100	> 100
CNc1cc(Nc2cccn(-c3ccc(C(=O)N4CCC(CN5CCC56CN(c5ncc(C#Cc7ccc8c(c7)n(C)c(=O)n8C7CCC(=O)NC7=O)cn5)C6)CC4)cn3)c2=O)nn2c(C(=O)N[C@@H]3C[C@@H]3F)cnc12 (some centres unmarked) [Example K375]	1 to 10	> 100	> 100
CNC(=O)c1cnc(Nc2ccc(C3CN(Cc4cccc5c4n(C)c(=O)n5C4CCC(=O)NC4=O)C3)cn2)cc1Nc1cccc(-c2ncc(F)cn2)c1OC (centres unmarked) [Example K703]	< 1	> 100	> 100
CNC(=O)c1cnc(Nc2ccc(CN3CCC(N(C)c4cccc5c4n(C)c(=O)n5C4CCC(=O)NC4=O)CC3)cn2)cc1Nc1cccc(-c2ncc(F)cn2)c1OC (centres unmarked) [Example K700]	> 100	< 1	< 1
CNc1cc(Nc2cccc(CN3CCC(N4CC(N5CCN(c6ccc7c(c6)n(C)c(=O)n7C6CCC(=O)NC6=O)CC5)C4)CC3)c2)nn2c(C(=O)NC3CC3)cnc12 (centres unmarked) [Example K589]	> 100	> 100	< 1
CNc1cc(Nc2cccc(N3CCC(CN4CC5(CCN(c6cccc7c6n(C)c(=O)n7C6CCC(=O)NC6=O)CC5)C4)CC3)c2)nn2c(C(=O)N[C@@H]3C[C@@H]3F)cnc12 (some centres unmarked) [Example K520]	> 100	> 100	< 1
CNc1cc(Nc2cccn(-c3ccc(CN4CCN(c5ccc(-c6ccc7c(c6)n(C)c(=O)n7C6CCC(=O)NC6=O)cc5)CC4)cn3)c2=O)nn2c(C(=O)N[C@@H]3C[C@@H]3F)cnc12 (some centres unmarked) [Example K495]	> 100	> 100	< 1
CNc1cc(Nc2cccn(C3CCN(C(=O)NCCCCc4ccc5c(c4)n(C)c(=O)n5C4CCC(=O)NC4=O)CC3)c2=O)nc2c(C(=O)N[C@@H]3C[C@@H]3F)cnn12 (some centres unmarked) [Example K330]	> 100	> 100	> 100
CNC(=O)c1cnc(Nc2ccc(C(=O)N(C)C3CCN(c4ccc5c(c4)n(C)c(=O)n5C4CCC(=O)NC4=O)CC3)cn2)cc1Nc1cccc(-c2ncc(F)cn2)c1OC (centres unmarked) [Example K178]	< 1	< 1	> 100
CNc1cc(C2CCN(C(=O)CCCCCCCc3ccc4c(c3)n(C)c(=O)n4C3CCC(=O)NC3=O)CC2)nn2c(C(=O)N[C@@H]3C[C@@H]3F)cnc12 (some centres unmarked) [Example K302]	> 100	> 100	> 100
CNc1cc(Nc2cccn(C3CCN(C(=O)N(C)CC4CCN(c5ccc6c(c5)n(C)c(=O)n6C5CCC(=O)NC5=O)CC4)CC3)c2=O)nn2c(C(=O)N[C@@H]3C[C@@H]3F)cnc12 (some centres unmarked) [Example K398]	< 1	> 100	> 100
CNC(=O)c1cnc(Nc2ccc(C(=O)NCCCCc3cccc4c3n(C)c(=O)n4C3CCC(=O)NC3=O)cn2)cc1Nc1cccc(-c2ncc(F)cn2)c1OC (centres unmarked) [Example K114]	1 to 10	< 1	< 1
CNc1cc(Nc2cccc(CN(C)C3CCN(c4ccc5c(c4)n(C)c(=O)n5C4CCC(=O)NC4=O)CC3)c2)nn2c(C(=O)NC3CC3)cnc12 (centres unmarked) [Example K593]	> 100	> 100	> 100
CNc1cc(Nc2cccn(C3CCN(C(=O)NCCCCc4ccc5c(c4)n(C)c(=O)n5C4CCC(=O)NC4=O)CC3)c2=O)nn2c(C(=O)N[C@@H]3C[C@@H]3F)cnc12 (some centres unmarked) [Example K277]	> 100	1 to 10	> 100
CNc1cc(-c2cccc(C(=O)NCCCCCCc3cccc4c3n(C)c(=O)n4C3CCC(=O)NC3=O)c2)nn2c(C(=O)N[C@@H]3C[C@@H]3F)cnc12 (some centres unmarked) [Example K308]	> 100	> 100	> 100
CNc1cc(Nc2cccn(-c3ccc(C(=O)N4CCC5(CCN(c6cnc(C#Cc7ccc8c(c7)n(C)c(=O)n8C7CCC(=O)NC7=O)nc6)C5=O)C4)cn3)c2=O)nn2c(C(=O)N[C@@H]3C[C@@H]3F)cnc12 (some centres unmarked) [Example K409]	> 100	> 100	1 to 10
CNc1cc(N2CCc3c(-c4ccc(CN5CC6(CCN(C(=O)c7ccc(Cl)c(N8CCC(=O)NC8=O)c7)CC6)C5)cn4)cccc32)nn2c(C(=O)N[C@@H]3C[C@@H]3F)cnc12 [Example K498]	< 1	> 100	< 1
CNc1cc(Nc2cccc(C(=O)NCCCCc3ccc4c(c3)n(C)c(=O)n4C3CCC(=O)NC3=O)c2)nn2c(C(=O)N[C@@H]3C[C@@H]3F)cnc12 (some centres unmarked) [Example K368]	> 100	–	–
CNc1cc(Nc2cccn(-c3ccc(C(=O)NCCCCCCCCCc4cccc5c4n(C)c(=O)n5C4CCC(=O)NC4=O)cn3)c2=O)nn2c(C(=O)N[C@@H]3C[C@@H]3F)cnc12 (some centres unmarked) [Example K266]	> 100	< 1	> 100
CCNC(=O)c1cnc(Nc2ccc(C(=O)N(C)C3CCN(c4ccc5c(c4)n(C)c(=O)n5C4CCC(=O)NC4=O)CC3)cn2)cc1Nc1cccc(-c2ncc(F)cn2)c1OC (centres unmarked) [Example K152]	1 to 10	> 100	> 100
CNc1cc(Nc2cccn(-c3cc(C(=O)NCCOCCOCCOCCOCCOCCOCCc4cccc5c4n(C)c(=O)n5C4CCC(=O)NC4=O)ccn3)c2=O)nn2c(C(=O)N[C@@H]3C[C@@H]3F)cnc12 (some centres unmarked) [Example K246]	> 100	–	–
CNc1cc(Nc2cccc(-c3ccc(CN4CCN(c5ccc(-c6ccc7c(c6)n(C)c(=O)n7C6CCC(=O)NC6=O)cc5)CC4)cn3)c2)nn2c(C(=O)N[C@@H]3C[C@@H]3F)cnc12 (some centres unmarked) [Example K511]	> 100	–	–
CNc1cc(Nc2cccn(-c3ccc(C(=O)N4CCC(CN5CCC(c6ccc7c(c6)n(C)c(=O)n7C6CCC(=O)NC6=O)CC5)CC4)cn3)c2=O)nn2c(C(=O)N[C@@H]3C[C@@H]3F)cnc12 (some centres unmarked) [Example K411]	> 100	–	< 1
